Where only a bound is given, the exact number is not on record here.

The values below come from PMC6161288, “Bioavailability of Eurycomanone in Its Pure Form and in a Standardised Eurycoma longifolia Water Extract” (Pharmaceutics, 2018).

On the set-up of series [1]: method as in PMID 27572280. To be noted: cited from earlier work.
Series [2] is described as follows: Caco-2 cell permeability assay. The conditions noted are these: human. Format: in vitro ADME. As for the experimental part:
The Caco-2 assay was carried out after seeding the cells onto the membrane to form a confluent monolayer in 21 days. The media is removed from apical (A) and basolateral (B) chambers and the membrane is washed with HBSS buffer. Eurycomanone (10 µM, 200 µL) was added to the A compartment (which represents the intestinal lumen), and buffer (300 µL) was added to the B compartment (representing the blood), and vice versa. The plate was kept in a shaking incubator (37 °C) for 1 h. The amount of eurycomanone that had permeated across the cells was measured by LC-MS/MS, and the apparent permeability (Papp) values and efflux ratio were calculated. The expression of P-glycoprotein (P-gp) by differentiated Caco-2 cells was confirmed by measuring the Papp value and efflux ratio of vinblastine with and without the presence of a competing P-gp substrate, cyclosporine A. Eurycomanone was also measured with the presence of cyclosporine A to investigate whether eurycomanone may be transported via P-gp transporters.
A general note: Caco-2 monolayers are a common model of the intestinal barrier.

The nature of series [3]: Liver microsome metabolic stability, rat. Format: in vitro ADME. To be noted: rat liver microsomes. As for the experimental part: The liver microsome stability assay of eurycomanone was estimated using phase I and phase II enzymes in five types of microsomes (mice, rat, dog, monkey, and human). Eurycomanone at 1 mM (20 µL), microsomes at 0.3 mg/mL (20 µL), and 10 mg/mL of alamethicin in 1:1 DMSO and methanol (20 µL) were preincubated at 37 °C for 10 min. The cofactor, 5 mM UDPGA (20 µL), and 1 mM NADPH (20 µL) were added to make the final assay volume of 100 µL. At timepoints 0, 15, 30, 45, 60, and 90 min, […] of the reaction mixture is taken out and added to the stop solution. The supernatants (10,000 rpm, 10 min, 4 °C) were collected and analysed using LC-MS/MS. The standards used for mice and rat liver microsomes were propranolol and dasatinib. The standards used with the dog and monkey liver microsomes were propranolol and midazolam, while the standards used with the human liver microsomes were propranolol and terfinadine.
(Liver microsomes are a subcellular fraction often used to study metabolism.)

Series [4] is described as follows: Plasma protein binding (rapid equilibrium dialysis), dog. The conditions noted are these: pH 7.4, 37 °C, read-out: percentage bound to plasma protein (converted). Format: in vitro ADME. The protocol:
The ability of eurycomanone to bind plasma protein was analysed in five types of plasma (mice, rat, dog, monkey, and human). Each type of plasma was spiked with eurycomanone (1 mM) to make the 10 µM test concentration of eurycomanone in the plasma. Equilibrium dialysis buffer (500 µL) at pH 7.4 was added to the right chamber in rapid equilibrium dialysis (RED), while the spiked plasma (300 µL) was added to the left chamber. The Teflon base plate was covered with aluminium foil and left on the shaking incubator at 37 °C for 4 h. The matrix was balanced by mixing 100 µL of the equilibrium buffer with the spiked plasma from the left chamber in RED before adding the stop solution (350 µL) to precipitate out the protein. The supernatant (10,000 rpm, 10 min, 4 °C) was collected and analysed using LC-MS/MS. The standards (propranolol, warfarin, and acebutalol) were analysed in duplicates.
In general terms: In equilibrium dialysis free small molecules cross a membrane that holds back macromolecules.

What is called Cmax is the highest concentration seen after dosing. In general, Papp refers to the rate of passage across a membrane or cell layer, normalised by area and donor concentration. A high value points to fast passage. What is called half-life is how long it takes for the measured level to halve. A low value points to fast loss. For `C=C1[C@@H](O)[C@]2(O)OC[C@]34[C@H]2[C@@]2(C)[C@H](O)C(=O)C=C(C)[C@@H]2C[C@H]3OC(=O)[C@H](O)[C@@]14O` [Eurycomanone], in series [1], the Cmax is 40.43 ng/mL. Also, the Papp at 1 h, 10 µM in series [2] (Caco-2, Caco-2, A to B) amounted to 0.45 ×10⁻⁶ cm/s; in series [2] (Caco-2, Caco-2, B to A) it was 0.73 ×10⁻⁶ cm/s. Further, the efflux ratio at 1 h, 10 µM in series [2] (Caco-2, Caco-2, read-out: Efflux Ratio) is less than 2. For the same molecule, in series [3], the “Half-life (t1/2)” value was greater than 1.5 h. The same molecule yielded a half-life at 200 µM in series [3] greater than 1.5 h. The CLint scaled at 200 µM in series [3] (read-out: Intrinsic clearance (Clint)) was determined as 83.2 mL/min/kg. Further, the fraction unbound at 4 h, 10 µM in series [4] was 0.322.
